Laboratory results: paper PMC8720025, “PTHG2 Reduces Bone Loss in Ovariectomized Mice by Directing Bone Marrow Mesenchymal Stem Cell Fate” (Stem Cells International, 2021)

Tests used:
[1] = CD spectroscopy, peptide helicity; type: physicochemical; conditions: 50 μM peptide in 50.0% TFE water solution, 25°C (legend: 20°C), from [θ]222
Procedure: CD parameters was collected on a JASCO J-820 spectropolarimeter (JASCO Corp., Ltd). […] The sample ellipticity data were collected at 25°C and 195 nm. The helicity of the polypeptide is calculated by the following formula [36, 37]. (1) α=θ222/ θmax×100%.
[θ]222 was the molar ellipticity at the absorption wavelength of 222 nm, [θ]max = ([…] + 250 T) (1 − K/N), K = 4, and N was the number of amino acids of the polypeptide (n = 34).

[2] = tested on: OVX-induced bone loss in mice; experiment: OVX-induced bone loss model (micro-CT, histology, qPCR); type: in vivo, C57/BL6 mice
[3] = tested on: BMSCs; experiment: In vitro adipogenesis assay of BMSCs; type: cell-based, C57/BL6 mice
[4] = tested on: heart, liver, spleen, lung, and kidney of mice; experiment: In vivo tissue toxicity test (H&E staining of organs); conditions: H&E staining after administration
Procedure: (a) BMSC cell viability as assessed by CCK-8 assay following treatment without or with indicated concentrations of PTHG2 for 48 and 96 h. […] (c) The relative expression of Cebp-α and Perilipin following PTHG2 treatment was quantified by real-time PCR. (d) After pretreatment with H89, BMSC differentiated and stained with Alizarin red for 21 days. Supplementary Material 2: H&E staining of the heart, liver, spleen, lung, and kidney after administration of normal saline, PTH, and PTHG2. Click here for additional data file.

[5] = tested on: BMSCs; experiment: Cell cycle analysis by PI staining and flow cytometry; type: cell-based, C57/BL6 mice; conditions: PI staining, flow cytometry
Procedure: Cells were cultured with 10 μM BrdU for one hour and fixed in 70% ethanol at -20 C. After washing with phosphate/citric buffer (40 ml Na2HPO4 with 4 ml 0.1 M citric acid), the cells were incubated with anti-BrdU antibody for one hour, then stained with propidium iodide (PI). For PI/RNase staining, cells were incubated with 0.5 ml of PI/RNAse staining buffer (BD Pharmingen) at 25°C for 15 minutes, then analyzed by flow cytometry.

[6] = tested on: CREB phosphorylation in BMSCs; experiment: Western blotting of CREB phosphorylation (cAMP-PKA signaling); type: cell-based, C57/BL6 mice
Procedure: The unstimulated group was the control group. After the stimulation, the cells were digested, and RIPA cell lysate (containing protein phosphatase inhibitors) was added and centrifuged. 30 μg protein was separated with SDS-PAGE. The proteins were then shifted to the nitrocellulose membrane using a trans-Blot Turbo Transfer System (Bio-Rad Laboratories, Hercules, CA, USA). Membrane was sealed with 5% bovine serum albumin (BSA) for 1 h. Membrane and specific primary antibody were incubated overnight at 4°C. Then, membrane was disposed with fluorescently labeled secondary Goat anti-Rabbit IgG Antibody (Dylight) for 1 hour at 25°C. The protein bands were imaged with a Bio-Rad visual imaging system (Bio-Rad Laboratories, Hercules, CA), and the relative protein expression was analyzed by Image J.

[7] = tested on: BMSCs; experiment: CCK-8 cell viability assay; type: cell-based, C57/BL6 mice; conditions: concentrations below 100 μM, 48 h and 96 h, absorbance 450 nm
Procedure: BMSCs were extracted from the femoral and tibial marrow cavity of 5-week-old C57/BL6 mice and cultured in mouse bone marrow mesenchymal stem cell medium for 2-3 days. The new culture medium was changed until the adherent cells grew 95% confluence and cell passage, or subsequent experiments were carried out. The cell growth environment was 37°C, 5% CO2, and […].
Cell viability of BMSCs were tested using the CCK-8 (Dojindo Molecular Technology, Kumamoto, Japan) according to instruction. BMSCs were inoculated in a 96-well plate (5 × 10^3 cells per well) and hatched overnight. […] Then, cells were disposed with 10 μl of CCK-8 reagent for 2 hours. After incubation, the absorbance was measured at 450 nm in a Biotek Cytation 5 System (Biotek Instruments, Vermont, USA).

[8] = tested on: BMSCs; experiment: In vitro osteogenesis assay of BMSCs; type: cell-based, C57/BL6 mice
[9] = 20/40 μg·kg−1 intraperitoneal daily for 8 weeks, compared with OVX group

SMILES | helicity [1] [%] | bone trabeculae number (Tb. N), micro-CT of femur [2, 9] | bone volume fraction (BV/TV), micro-CT of femur [2, 9] | number of adipocytes (oil red staining) ([3]; adipogenic conditioned medium, 21 days, compared with the control) | adipogenic gene protein expression (Fabp4/PPARɣ/Adiponectin) ([3]; adipogenic differentiation, compared with control group) | tissue toxicity to heart, liver, spleen, lung, and kidney [4] | effect on cell cycle [5] | phosphorylation level of CREB ([6]; BMSCs starved 1 hour, stimulated with 10 μM peptide for 6 hours, without H89-2HCl) | toxicity to BMSCs (CCK-8) [7] | osteogenic differentiation activity of BMSCs (ALP staining) ([8]; 10 nM, 6 h/day, osteogenic medium, 7 days) | expression of Runx2 gene (qPCR) ([8]; 10 nM, osteogenic differentiation, compared with control group) | ALP and RUNX2 protein levels (Western blotting) ([8]; osteogenic differentiation, 3, 7, and 10 days, compared to the control group) | number of FABP4-positive cells (IHC, distal femur) [2] | OCN positivity, immunofluorescence of distal femur ([2]; 8 weeks of treatment) | number of lining cells on the trabecular bone surface (H&E) ([2]; 8 weeks of treatment, compared to the OVX group, n = 6 per group) | expression of OCN gene in bone mRNA (qPCR) ([2]; bone of the upper limb, compared with the OVX group) | inhibition of adipocyte generation (Fabp4 gene, qPCR) ([2]; compared with PTH (1-34)) | number of adipocytes (vacuoles/cavitation) in H&E staining ([2]; metaphysis, compared with OVX group) | phosphorylation level of CREB ([6]; BMSCs pretreated with H89-2HCl for 1 hour, then stimulated with PTH (1-34)/PTHG2 for 6 hours)
CC[C@H](C)[C@H](NC(=O)[C@H](CCC(=O)O)NC(=O)[C@H](CO)NC(=O)[C@@H](NC(=O)[C@@H](N)CO)C(C)C)C(=O)N[C@@H](CCC(N)=O)C(=O)N[C@@H](CC(C)C)C(=O)N[C@@H](CCSC)C(=O)N[C@@H](Cc1c[nH]cn1)C(=O)N[C@@H](CC(N)=O)C(=O)N[C@@H](CC(C)C)C(=O)NCC(=O)N[C@@H](CCCCN)C(=O)N[C@@H](Cc1c[nH]cn1)C(=O)N[C@@H](CC(C)C)C(=O)N[C@@H](CC(N)=O)C(=O)N[C@@H](CO)C(=O)N[C@@H](CCSC)C(=O)N[C@@H](CCC(=O)O)C(=O)N[C@@H](CCCNC(=N)N)C(=O)N[C@H](C(=O)N[C@@H](CCC(=O)O)C(=O)N[C@@H](Cc1c[nH]c2ccccc12)C(=O)N[C@@H](CC(C)C)C(=O)N[C@@H](CCCNC(=N)N)C(=O)N[C@@H](CCCCN)C(=O)N[C@@H](CCCCN)C(=O)N[C@@H](CC(C)C)C(=O)N[C@@H](CCC(N)=O)C(=O)N[C@@H](CC(=O)O)C(=O)N[C@H](C(=O)N[C@@H](Cc1c[nH]cn1)C(=O)N[C@@H](CC(N)=O)C(=O)N[C@@H](Cc1ccccc1)C(=O)O)C(C)C)C(C)C [PTH (1-34), Teriparatide, reference compound] | 38.5 | significantly increased | significantly increased |  |  |  |  |  |  |  |  |  |  |  |  |  |  |  | 
CC[C@H](C)[C@H](NC(=O)[C@H](CCC(=O)O)NC(=O)[C@H](CO)NC(=O)[C@@H](NC(=O)[C@@H](N)CO[C@@H]1O[C@H](CO)[C@@H](O)[C@H](O)[C@H]1NC(C)=O)C(C)C)C(=O)N[C@@H](CCC(N)=O)C(=O)N[C@@H](CC(C)C)C(=O)N[C@@H](CCSC)C(=O)N[C@@H](Cc1c[nH]cn1)C(=O)N[C@@H](CC(N)=O)C(=O)N[C@@H](CC(C)C)C(=O)NCC(=O)N[C@@H](CCCCN)C(=O)N[C@@H](Cc1c[nH]cn1)C(=O)N[C@@H](CC(C)C)C(=O)N[C@@H](CC(N)=O)C(=O)N[C@@H](CO)C(=O)N[C@@H](CCSC)C(=O)N[C@@H](CCC(=O)O)C(=O)N[C@@H](CCCNC(=N)N)C(=O)N[C@H](C(=O)N[C@@H](CCC(=O)O)C(=O)N[C@@H](Cc1c[nH]c2ccccc12)C(=O)N[C@@H](CC(C)C)C(=O)N[C@@H](CCCNC(=N)N)C(=O)N[C@@H](CCCCN)C(=O)N[C@@H](CCCCN)C(=O)N[C@@H](CC(C)C)C(=O)N[C@@H](CCC(N)=O)C(=O)N[C@@H](CC(=O)O)C(=O)N[C@H](C(=O)N[C@@H](Cc1c[nH]cn1)C(=O)N[C@@H](CC(N)=O)C(=O)N[C@@H](Cc1ccccc1)C(=O)O)C(C)C)C(C)C [PTHG2] | 39.1 |  |  | did not increase | resemble to that of the control group | no toxicity | no effect | increased | no toxicity | significantly enhanced | higher than that in control group | significantly increased | reduced | significant increase | significantly increased | significantly increased | same effect as PTH (1-34) | significantly reduced | 
O=S(=O)(NCCNC/C=C/c1ccc(Br)cc1)c1cccc2cnccc12 [H89-2HCL, H89-2HCl, reference compound] |  |  |  |  |  |  |  |  |  |  |  |  |  |  |  |  |  |  | not increased
